From ChEMBL document CHEMBL1138722, “3-(2-Methoxytetrahydrofuran-2-yl)pyrazoles: a novel class of potent, selective cyclooxygenase-2 (COX-2) inhibitors” (Bioorg Med Chem Lett, 2004)

Legend:
[1] = target: T1, Prostaglandin G/H synthase 1 (Homo sapiens, UniProt P23219); test: In vitro inhibition of Prostaglandin G/H synthase 1 in human whole blood at 100 uM; type: tissue-based
[2] = target: T2, Prostaglandin G/H synthase 2 (Homo sapiens) (UniProt P35354); conditions: Blood, at 1 µM
T2 sequence (whole entry): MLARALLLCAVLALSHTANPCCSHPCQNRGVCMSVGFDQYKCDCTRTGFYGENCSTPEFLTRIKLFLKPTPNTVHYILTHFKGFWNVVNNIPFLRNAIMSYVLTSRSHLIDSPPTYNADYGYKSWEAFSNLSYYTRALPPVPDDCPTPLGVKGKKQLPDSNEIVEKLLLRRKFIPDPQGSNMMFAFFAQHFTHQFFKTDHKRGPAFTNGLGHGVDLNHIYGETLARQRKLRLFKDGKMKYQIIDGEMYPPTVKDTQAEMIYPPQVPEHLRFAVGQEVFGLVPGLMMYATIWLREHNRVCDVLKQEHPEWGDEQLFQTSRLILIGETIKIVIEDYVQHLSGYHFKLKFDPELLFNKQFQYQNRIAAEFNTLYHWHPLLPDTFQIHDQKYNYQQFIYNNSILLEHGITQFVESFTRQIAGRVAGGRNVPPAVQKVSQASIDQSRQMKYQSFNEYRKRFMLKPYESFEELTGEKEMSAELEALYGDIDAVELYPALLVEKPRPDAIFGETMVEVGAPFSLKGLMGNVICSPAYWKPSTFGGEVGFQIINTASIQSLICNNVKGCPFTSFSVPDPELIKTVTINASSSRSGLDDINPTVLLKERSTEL
Description: In vitro inhibition of Prostaglandin G/H synthase 2 in human whole blood at 1 uM

[3] = target: T2, Prostaglandin G/H synthase 2 (Homo sapiens); conditions: Blood, at 10 µM
Description: In vitro inhibition of Prostaglandin G/H synthase 2 in human whole blood at 10 uM

[4] = target: T1, Prostaglandin G/H synthase 1; test: In vitro inhibition of Prostaglandin G/H synthase 1 in human whole blood; type: tissue-based
[5] = target: T3, Prostaglandin G/H synthase 2 (Homo sapiens, UniProt P35354); test: In vitro inhibition of Prostaglandin G/H synthase 2 in human whole blood; type: tissue-based
T3 sequence (P35354 whole entry): T2 sequence (whole entry)

T1 sequence (P23219 whole entry): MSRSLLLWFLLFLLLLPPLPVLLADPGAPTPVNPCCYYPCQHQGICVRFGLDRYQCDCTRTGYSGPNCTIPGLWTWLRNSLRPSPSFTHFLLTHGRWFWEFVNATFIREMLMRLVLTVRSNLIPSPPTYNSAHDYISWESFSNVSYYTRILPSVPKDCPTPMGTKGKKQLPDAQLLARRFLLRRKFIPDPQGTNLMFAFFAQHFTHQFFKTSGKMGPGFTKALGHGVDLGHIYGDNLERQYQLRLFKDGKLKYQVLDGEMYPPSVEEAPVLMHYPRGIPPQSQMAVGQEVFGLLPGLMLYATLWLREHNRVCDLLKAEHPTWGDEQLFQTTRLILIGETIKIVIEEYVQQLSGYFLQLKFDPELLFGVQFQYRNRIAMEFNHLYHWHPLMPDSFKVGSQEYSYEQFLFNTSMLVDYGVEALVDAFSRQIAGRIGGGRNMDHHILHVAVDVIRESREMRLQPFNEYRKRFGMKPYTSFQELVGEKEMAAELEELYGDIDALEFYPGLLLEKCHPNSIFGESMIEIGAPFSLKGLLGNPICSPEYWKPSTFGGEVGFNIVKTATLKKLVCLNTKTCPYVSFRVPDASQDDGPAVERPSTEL

Structure (SMILES)	inhibition [1] [%]	inhibition [2] [%]	inhibition [3] [%]	IC50 [4] [nM]	IC50 [5] [nM]
COC1(c2cc(-c3ccc(S(C)(=O)=O)cc3)n(-c3ccc(F)cc3)n2)CCCO1 (stereo not drawn)	25	40	75	–	–
COC1(c2cc(-c3ccc(S(C)(=O)=O)cc3)n(-c3ccc(Br)cc3)n2)CCCO1 (stereo not drawn)	72	13	84	–	–
COC1(c2cc(-c3ccc(S(C)(=O)=O)cc3)n(-c3ccc(C(F)(F)F)cc3)n2)CCCO1 (stereo not drawn)	50	25	70	–	–
COC1(c2cc(-c3ccc(S(C)(=O)=O)cc3)n(-c3ccccc3)n2)CCCO1 (stereo not drawn)	20	30	65	–	–
COC1(c2cc(-c3ccc(S(C)(=O)=O)cc3)n(-c3ccc(C#N)cc3)n2)CCCO1 (stereo not drawn)	0	30	25	–	–
COC1(c2cc(-c3ccc(S(C)(=O)=O)cc3)n(-c3ccc(Cl)cc3)n2)CCCO1 (stereo not drawn)	60	25	80	–	–
COC1(c2cc(-c3ccc(S(C)(=O)=O)cc3)n(-c3ccc(C)cc3)n2)CCCO1 (stereo not drawn)	55	55	90	> 100000	1200
